Test: Transdermal hydrogen sulfide on forearm after N-acetyl cysteine, Interscan Halimeter PLUS
Type: in vivo, human
Details: 600 mg oral; for Transdermal Hydrogen Sulfide H2S: adult male, forearm
Protocol: We hypothesized that formula 2 sustained a higher level of bioavailable NO than formula 1 because N-acetyl cysteine generates hydrogen sulfide in the body. To test this hypothesis, we measured transdermal hydrogen sulfide on the surface of the forearm after an adult subject ingested 600 mg of N-acetyl cysteine. The test was performed using Interscan Halimeter® PLUS with a simple modification of sample collection method. Hydrogen sulfide, the primary volatile sulfur compounds detectable by the device, was measured in triplicate for 6 hours after dosing with N-acetyl cysteine (Table IV). […] The data support a mechanism wherein N-acetyl cysteine increases hydrogen sulfide production that boosts NO availability and activity in the body.

CC(=O)N[C@@H](CS)C(=O)O [N-acetyl cysteine]
Transdermal Hydrogen Sulfide H2S (0 h): 16 ppb | Transdermal Hydrogen Sulfide H2S (2 h): 27 ppb | Transdermal Hydrogen Sulfide H2S (3 h): 46 ppb | Transdermal Hydrogen Sulfide H2S (4 h): 51 ppb | Transdermal Hydrogen Sulfide H2S (5 h): 40 ppb | Transdermal Hydrogen Sulfide H2S (6 h): 16 ppb | transdermal hydrogen sulfide (peak at 4 hours): 51 ppb | transdermal hydrogen sulfide (starting value): 16 ppb | transdermal hydrogen sulfide (within 2 hours): 27 ppb
